Experimental data: US20240209028A1, “CNP COMPOUNDS” (priority 2022, published 2024)
Starred links: 1 amine or outer side, 2 acyl side, 3 side chain; linkers in the order of their positions; H or OH if unused. Positions of bridges follow the written chain, without caps; N, C: chain ends. Residues, ends and D or L forms follow the SMILES beside them. *: point of attachment. C18 diacid = O=C(O)CCCCCCCCCCCCCCCCC(=O)*; γGlu = O=C(O)[C@H](CCC(=O)[*:2])N[*:1]; AEEA = NCCOCCOCC(=O)O

Molecular target: T1, human natriuretic peptide receptor 2 (hNPR2) (Homo sapiens, UniProt P20594)
T1 construct: expressed in transfected cells; host or cells: HEK293 (ATCC CRL-1573), clone 35, co-transfected with pGloSensor-42F
T1 sequence (P20594 23-1047): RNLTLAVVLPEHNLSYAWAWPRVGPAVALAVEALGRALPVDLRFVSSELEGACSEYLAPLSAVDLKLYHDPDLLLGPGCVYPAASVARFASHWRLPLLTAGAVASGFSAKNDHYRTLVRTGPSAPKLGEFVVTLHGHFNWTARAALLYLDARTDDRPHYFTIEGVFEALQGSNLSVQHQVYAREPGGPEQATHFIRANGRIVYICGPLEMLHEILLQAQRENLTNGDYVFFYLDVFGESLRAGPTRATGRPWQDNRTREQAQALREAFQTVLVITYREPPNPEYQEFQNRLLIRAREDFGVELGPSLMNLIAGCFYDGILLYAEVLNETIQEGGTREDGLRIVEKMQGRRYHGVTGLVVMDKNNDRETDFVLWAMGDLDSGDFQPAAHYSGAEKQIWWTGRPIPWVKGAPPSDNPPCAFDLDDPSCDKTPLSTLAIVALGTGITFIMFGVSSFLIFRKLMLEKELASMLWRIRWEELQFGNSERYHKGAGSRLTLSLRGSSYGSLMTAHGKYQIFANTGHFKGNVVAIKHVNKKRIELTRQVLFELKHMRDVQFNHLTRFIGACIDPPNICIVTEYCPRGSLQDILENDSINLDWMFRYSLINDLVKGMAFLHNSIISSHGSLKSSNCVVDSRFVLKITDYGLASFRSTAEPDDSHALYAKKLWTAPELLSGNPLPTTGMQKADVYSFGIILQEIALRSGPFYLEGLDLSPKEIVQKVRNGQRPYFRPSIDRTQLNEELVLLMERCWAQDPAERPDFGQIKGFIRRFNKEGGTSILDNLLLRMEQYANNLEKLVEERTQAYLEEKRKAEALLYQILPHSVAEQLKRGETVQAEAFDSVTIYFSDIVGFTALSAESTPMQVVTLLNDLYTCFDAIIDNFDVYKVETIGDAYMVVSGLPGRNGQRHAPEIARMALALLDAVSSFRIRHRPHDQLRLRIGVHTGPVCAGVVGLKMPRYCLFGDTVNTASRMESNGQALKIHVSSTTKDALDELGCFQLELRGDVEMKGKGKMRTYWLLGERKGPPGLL
Assay: In vitro hNPR2 activity assay (cGMP GloSensor reporter, HEK293)
Type: cell-based
Settings: for hNPR2 0% HSA. [EC50% rel CNP]: potency relative to CNP22 (0065)
Method: To evaluate the in vitro activity of CNP22 (0065; Chem. 1) and CNP compounds of the invention, they were tested for their ability to induce production of cyclic guanosine monophosphate (cGMP) in reporter cells expressing the human natriuretic peptide receptor 2 (hNPR2).
Cell culture: To produce the reporter cell line, HEK293 (ATCC® CRL-1573™) cells were stably transfected with the pGloSensor-42F reporter plasmid (GloSensor cGMP reporter—luciferase, Promega) and an expression plasmid encoding the hNPR2 receptor. A single cell clone was isolated for the reporter cell line. When reporter cells are exposed to an hNPR2 activating compound, hNPR2 cause production of cGMP. […] Active GloSensor luciferase is able to convert luciferin to oxyluciferin, a process that produces bioluminescence. Upon cell lysis and supply of luciferase substrate, luciferase activity can be quantified by detection of luminescence. Therefore, addition of an hNPR2 activating compound and subsequent addition of detection reagent to reporter cells causes generation of luminescence in a dose dependent manner. […] This measure, also referred to as in vitro potency, is reported for all compounds tested. In all the in vitro activity experiments, CNP22 was used as a positive in-plate control for hNPR2 activation. To reduce inter-assay variation, we also report the potency of each compound relative to the potency of the CNP22 control on each plate.
Procedure: HEK293-hNPR2/GloSensor clone 35 cells were continuously cultured in selection medium (DMEM containing 10% FCS, 1% P/S, 200 μg/mL G418 and 100 μg/mL hygromycin). To perform the assay, cells were detached with TrypLE Express (Gibco #12604013), put through a 70 μm cell strainer, counted and seeded in 30 μL/well assay medium (DMEM without phenol red and with 1% P/S) at 10,000 cells/well in white 384-well plates (Perkin Elmer #6007680) overnight. The following day, test compounds were serial diluted in dilution medium (DMEM without phenol red containing 1% OVA (Sigma #A5505 lot 04M7001V), 0.01% Tween20 (Roche #33766700) and 1% P/S) and 10 μL/well of diluted test compounds were subsequently added to the cells. For each compound, ten different concentrations in the range 0.25 μM-10 μM were tested. After 30 min of incubation at 37° C. and 5% CO2, 40 μL/well Bright-Glo detection reagent (Promega #E2650) was added. […] To determine the in vitro potency or EC50 of each test compound, a four parameter logistic regression was done on the raw data for each test compound using the Python package SciPy optimize. The average EC50 values are listed as “hNPR2 0% HSA. [EC50 (nM)]” in Table 2. A relative potency was calculated by the following expression: EC50 (CNP22 in-plate control)/EC50 (test compound)*100, shown as “hNPR2 0% HSA. [EC50% rel CNP]” in Table 2. A minimum of two replicates was measured for each test compound.

## CC[C@H](C)[C@@H]1NC(=O)[C@H](CCCNC(=N)N)NC(=O)[C@H](CC(=O)O)NC(=O)[C@H](CC(C)C)NC(=O)[C@@H]2CCCN2C(=O)[C@H](CC(C)C)NC(=O)CNC(=O)[C@H](Cc2ccccc2)NC(=O)[C@@H](NC(=O)CNC(=O)[C@H](CO)NC(=O)[C@H](CO)NC(=O)[C@H](CC(C)C)NC(=O)CNC(=O)[C@H](CCCCN)NC(=O)[C@H](CCCCN)NC(=O)[C@H](CCC(N)=O)NC(=O)[C@H](C)NC(=O)CNC(=O)[C@H](CCC(=O)O)NC(=O)[C@H](Cc2ccc(O)cc2)NC(=O)[C@H](CO)NC(=O)[C@H](CCCNC(=N)N)NC(=O)[C@H](C)NC(=O)[C@H](CCC(=O)O)NC(=O)[C@@H]2CCCN2C(=O)[C@H](Cc2c[nH]cn2)NC(=O)[C@H](CCC(=O)O)NC(=O)[C@H](CCC(N)=O)NC(=O)COCCOCCNC(=O)COCCOCCNC(=O)CC[C@H](NC(=O)CCCCCCCCCCCCCCCCC(=O)O)C(=O)O)CSSC[C@@H](C(=O)O)NC(=O)CNC(=O)[C@H](CC(C)C)NC(=O)CNC(=O)[C@H](CO)NC(=O)[C@H](CC(C)C)NC(=O)[C@H](CO)NC(=O)CNC1=O [compound 1380] ({C18 diacid-γGlu-AEEA-AEEA}-QEHPEARSYEGAQKKGLSSGCFGLPLDRIGSLSGLGC-OH; disulfide 21-37; C-terminus assumed)
  hNPR2 0% HSA. [EC50% rel CNP]: 15.7%

## CC[C@H](C)[C@@H]1NC(=O)[C@H](CCCNC(=N)N)NC(=O)[C@H](CC(=O)O)NC(=O)[C@H](CC(C)C)NC(=O)[C@@H]2CCCN2C(=O)[C@H](CC(C)C)NC(=O)CNC(=O)[C@H](Cc2ccccc2)NC(=O)[C@@H](NC(=O)CNC(=O)[C@H](CCC(N)=O)NC(=O)[C@H](CO)NC(=O)[C@H](CC(C)C)NC(=O)CNC(=O)[C@H](CCCCN)NC(=O)[C@H](CCCCN)NC(=O)[C@H](CCC(N)=O)NC(=O)[C@H](C)NC(=O)CNC(=O)[C@H](CCCCN)NC(=O)[C@H](Cc2ccc(O)cc2)NC(=O)[C@H](CCCCN)NC(=O)[C@H](CCCNC(=N)N)NC(=O)[C@H](C)NC(=O)COCCOCCNC(=O)COCCOCCNC(=O)COCCOCCNC(=O)CC[C@H](NC(=O)CC[C@H](NC(=O)CC[C@H](NC(=O)CC[C@H](NC(=O)CC[C@H](NC(=O)CCCCCCCCCCCCCCCCC(=O)O)C(=O)O)C(=O)O)C(=O)O)C(=O)O)C(=O)O)CSSC[C@@H](C(=O)O)NC(=O)CNC(=O)[C@H](CC(C)C)NC(=O)CNC(=O)[C@H](CO)NC(=O)[C@H](CC(C)C)NC(=O)[C@H](CO)NC(=O)CNC1=O [compound 1452] ({C18 diacid-γGlu-γGlu-γGlu-γGlu-γGlu-AEEA-AEEA-AEEA}-ARKYKGAQKKGLSQGCFGLPLDRIGSLSGLGC-OH; disulfide 16-32)
  hNPR2 0% HSA. [EC50% rel CNP]: 57.6%

## CC[C@H](C)[C@@H]1NC(=O)[C@H](CCCNC(=N)N)NC(=O)[C@H](CC(=O)O)NC(=O)[C@H](CC(C)C)NC(=O)[C@H](CCCCN)NC(=O)[C@H](CC(C)C)NC(=O)CNC(=O)[C@H](Cc2ccccc2)NC(=O)[C@@H](NC(=O)CNC(=O)[C@H](CCCCN)NC(=O)[C@H](CO)NC(=O)[C@H](CC(C)C)NC(=O)CNC(=O)COCCOCCNC(=O)COCCOCCNC(=O)CC[C@H](NC(=O)CCCCCCCCCCCCCCCCC(=O)O)C(=O)O)CSSC[C@@H](C(=O)O)NC(=O)CNC(=O)[C@H](CC(C)C)NC(=O)CNC(=O)[C@H](CO)NC(=O)[C@H](CCSC)NC(=O)[C@H](CO)NC(=O)CNC1=O [compound 0089]
0% HSA, HEK293-hNPR2/GloSensor cells
  EC50: 12.3 nM
  hNPR2 0% HSA. [EC50% rel CNP]: 3.1%
